Measurements as given in patent US20060004088A1, “Furan derivatives for preventing and curing osteoporosis and pharmaceutical compositions containing the same” (OCT INC., priority 2002, published 2006).

Test system: osteoclast pregenitor cells
Assay: Inhibition rates of furan derivatives versus osteoclast formation (TRAP staining)
Type: cell-based, mice
Conditions: TRAP-positive multinucleated cells, untreated control set as 100%
Procedure: First, bone marrow cells were isolated, as follow. After sacrificing 7-9 week female mice by cervical dislocation, femur and tibia were excised aseptically while removing attached soft tissues. After cutting both ends of long bones, 1 ml of an enzyme solution, containing 0.1% collagenase (Gibco), 0.05% trypsin and 0.5 mM EDTA (Gibco), was injected to the bone marrow cavity at one end using a syringe with a 26-guage needle, and bone marrow was then collected. After shaking the recovered bone marrow for 30 min, bone marrow cells were collected, and cultured in α-minimum essential medium (α-MEM) supplemented with 10% FBS for 24 hrs. Then, non-adherent cells were collected, which are osteoclast pregenitors, aliquotted onto culture plates at a density of 2×10^5 cells per well, and cultured for 8 days in α-MEM supplemented with 20 ng/ml of macrophage-colony stimulating factor (M-CSF, Peprotech, USA) and 30 ng/ml RANKL (Peprotech, USA). During the 8 days of culturing, the cells were treated with the Compound 1. Thereafter, osteoclast formation was investigated by fixing the cultured cells and then carrying out TRAP staining, as described in the following Experimental Example 2.2. In addition, resorption activity of osteoclasts was investigated by measuring the absorption area after removing osteoclasts in cultures in calcium phosphate-coated plates, as described in Experimental Example 2.3, below.
After cell culture, the adherent cells were washed with PBS, and TRAP staining was performed, as follows. After being fixed with citrate-acetate-formaldehyde for 5 min, the cells were incubated for 1 hr in acetate buffer (prewarmed at 37° C., pH 5.0) containing naphthol AS-BI phosphate, fast Garnet GBC and 7 mM tartrate buffer (pH 5.0). TRAP-positive multinucleated cells having 3 or more nuclei were considered as osteoclasts.
Osteoclast pregenitor cells were isolated, and their differentiation to mature osteoclasts was induced, according to the same method as in the Experimental Example 2-1, while treated with each of the furan derivatives of the present invention. According to the same method as in the Experimental Example 2-2, TRAP staining performed, and TRAP-positive multinucleated cells were counted. An inhibition rate of each furan derivative against osteoclast formation was expressed as percentage, wherein the number of stained cells in a control not treated the furan derivative was arbitrarily set as 100% (Tables 14 to 16).

SMILES | Inhibition rate against osteoclast formation, % (0.1 μM) [%] | Inhibition rate against osteoclast formation, % (1 μM) [%] | Inhibition rate against osteoclast formation, % (10 μM) [%]
CC1CCN(C(=O)c2ccc(COc3cc(Cl)ccc3Cl)o2)CC1 [Compound 124] | 0 | 0 | 7.62
COC(=O)c1ccccc1NC(=O)c1ccc(COc2ccc(C)c(C)c2)o1 [Compound 180] | 0 | 0 | 8.15
COC(=O)c1ccc(COc2ccc(Cl)c(C)c2)o1 [Compound 75] | 0 | 0 | 0.78
CC(C)OC(=O)c1ccc(COc2cc(Cl)ccc2Cl)o1 [Compound 95] | 0 | 0 | 0.97
CCc1ccc(OCc2ccc(C(=O)Nc3cc(C)cc(C)c3)o2)cc1 [Compound 169] | 0 | 0 | 21.04
O=Cc1ccc(COC(=O)Cc2ccsc2)o1 [Compound 36] | 0 | 6.67 | 30
COC(=O)c1ccc(COc2ccccc2Cl)o1 [Compound 61] | 0 | 0 | 11.66
COC(=O)c1ccc(COc2ccc(Cl)cc2Cl)o1 [Compound 60] | 0 | 0 | 32.75
O=C(O)c1ccc(COc2cccc(Cl)c2)o1 [Compound 112] | 0 | 0 | 7.79
Cc1cc(OCc2ccc(C(=O)Nc3cccc(C)c3C)o2)ccc1Cl [Compound 172] | 0 | 0 | 11.08
COc1cc([N+](=O)[O-])ccc1NC(=O)c1ccc(COc2ccc(Cl)cc2)o1 [Compound 182] | 0 | 0 | 4.34
O=Cc1ccc(COC(=O)Cc2cccc(F)c2)o1 [Compound 37] | 0 | 10 | 6.67
O=C(Nc1cccc(Br)c1)c1ccc(COc2ccc(F)cc2)o1 [Compound 140] | 0 | 0 | 11.93
Cc1cc(OCc2ccc(C(=O)O)o2)ccc1Cl [Compound 119] | 0 | 0 | 37.02
COc1ccc(NC(=O)c2ccc(COc3ccccc3Cl)o2)cc1Cl [Compound 142] | 0 | 0 | 32.17
O=C(Nc1cc(F)ccc1F)c1ccc(COc2cccc(Cl)c2)o1 [Compound 151] | 0 | 0 | 19.8
COC(=O)c1ccc(CNc2ccccc2)o1 [Compound 89] | 0 | 0 | 12.6
COc1ccc(NC(=O)c2ccc(COc3ccc(F)cc3)o2)c([N+](=O)[O-])c1 [Compound 149] | 0 | 10.32 | 78.34
COC(=O)c1ccc(COc2ccc3c(c2)CCC3)o1 [Compound 70] | 0 | 0 | 3.34
COC(=O)c1ccc(C)c(NC(=O)c2ccc(COc3ccc(I)cc3)o2)c1 [Compound 152] | 5.37 | 0.08 | 37.56

SMILES | Inhibition rate against osteoclast formation, % (0.1 μM) [%] | Inhibition rate against osteoclast formation, % (1 μM) [%] | Inhibition rate against osteoclast formation, % (10 μM) [%]
Cc1ccc(F)c(NC(=O)c2ccc(COc3ccccc3[N+](=O)[O-])o2)c1 [Compound 158] | 0 | 0 | 23.57
COc1ccccc1OCc1ccc(C(=O)OC(C)C)o1 [Compound 94] | 0 | 0 | 5.9
O=Cc1ccc(COC(=O)Cc2c(F)cccc2Cl)o1 [Compound 34] | 0 | 16.7 | 36.7
CCOc1ccc(OCc2ccc(C(=O)NC(C)(C)C)o2)cc1 [Compound 165] | 12.35 | 28.76 | 88.75
CC(C)c1ccc(OCc2ccc(C(=O)O)o2)cc1 [Compound 114] | 0 | 0 | 4.2
O=Cc1ccc(COC(=O)Cc2c(F)cccc2F)o1 [Compound 33] | 0 | 3.3 | 50
O=C(O)c1ccc(COc2cc(Cl)ccc2Cl)o1 [Compound 109] | 0 | 0 | 3.25
O=Cc1ccc(COC(=O)Cc2ccc(F)cc2F)o1 [Compound 39] | 0 | 10 | 56.67
COc1ccc(F)c(CC(=O)OCc2ccc(C=O)o2)c1 [Compound 42] | 0 | 23.33 | 53.33
O=Cc1ccc(COC(=O)Nc2cccc(Cl)c2)o1 [Compound 49] | 0 | 10 | 0
CCCCNC(=O)OCc1ccc(C=O)o1 [Compound 53] | 0 | 10 | 36.67
CCN(CC)C(=O)c1ccc(COc2ccc(Cl)c(C)c2)o1 [Compound 123] | 0 | 6.9 | 100
O=C(O)c1ccc(COc2ccc(F)cc2)o1 [Compound 102] | 0 | 0 | 5.05
CCCc1ccc(OCc2ccc(C(=O)Nc3ccc(OC)c(OC)c3)o2)cc1 [Compound 164] | 0 | 0 | 30.52
O=C(Nc1cccc(Cl)c1Cl)c1ccc(COc2ccccc2[N+](=O)[O-])o1 [Compound 156] | 13.01 | 18.26 | 98.48
O=Cc1ccc(COC(=O)Nc2ccc(Cl)c(Cl)c2)o1 [Compound 54] | 0 | 0 | 10
Cc1ccc(F)c(NC(=O)c2ccc(COc3ccc(C)cc3[N+](=O)[O-])o2)c1 [Compound 155] | 0 | 0 | 27.92
O=C(O)c1ccc(CSCc2ccccc2)o1 [Compound 120] | 0 | 0 | 27.99
CC(C)(C)c1ccc(OCc2ccc(C(=O)Nc3ccccc3)o2)cc1 [Compound 136] | 0 | 0 | 2.49
O=C(Nc1ccccc1[N+](=O)[O-])c1ccc(COc2ccccc2Cl)o1 [Compound 183] | 0 | 0 | 57.39
